Reference: patent EP4682146A1, “COMPOSITION INCLUDING NOVEL PYRIDOINDOLE DERIVATIVE COMPOUND AS ACTIVE INGREDIENT FOR PREVENTION OR TREATMENT OF NEURODEGENERATIVE DISEASES” (Neurotarge Co., Ltd., priority 2023, dated 2024)

Target: T1, Tau-Synaptogyrin3 interaction (Homo sapiens, UniProt O43761+P10636)
T1 construct: expressed in transfected cells
Test: Cell-based split luciferase (NanoBit) protein complementary assay for Tau-Synaptogyrin3 interaction in stable cell line HEK293T-TK252-1E2
Details: HEK293T-TK252-1E2 cells, 48 hrs compound treatment, L/F value (luciferase activity/fluorescent intensity) compared to DMSO control
Experimental: Live cell luciferase assay: Live cell luciferase activity was measured using NanoGlo® Live Cell Assay System (Cat# N2012. Promega, WI, USA), according to manufacturer's instruction. All microplate-based measurement was performed with BioTek Synergy H1 (Agilent. CA, USA).
For producing HEK293T-TK252 stable cell line for screening, BglII-linearized pTK252 was transfected to HEK293T cells. After 24 hrs transfection, the transfected cells were cultured in the culture media containing 1 µg/ml puromycin (10 mM in DMSO, Cat# J61278/ Alfa Aesar. ThermoFisher Korea, Seoul, Korea) for 9 days. Regular media change was performed in every 3 days with fresh puromycin of indicating concentration during the whole selection period. The selected cells were trypsinized and diluted to 5 cells/ml and seeded to 4x 96 well cell culture plates (100 µl/well), and cultured with the cell culture media containing 1 µg/ml puromycin for 11 days. 18 wells that contained only GFP-positive cells were selected for expansion, and cultured with the cell culture media containing 0.1-0.2 µg/ml puromycin for 14 days. 10 clones were discarded during the expansion due to emerging of non-GFP cells, and 8 clones were validated. The selected clone (1E2) was cultured with the cell culture media containing 0.5 µg/ml puromycin for further experiments.
3 µmol of 1,728 compounds were purchased from Otava Chemicals MB (Vilniaus, Lithuania), dissolved into 300 µl DMSO (10 mM) and stored at -80°C. 4x10^4 HEK293T-TK252-1E2 cells were seeded with 100 µl of the cell culture media into 96 white well cell culture plates (Cat# 30196. SPL, Seoul, Korea), 48 hrs prior to compound treatment. For 10 µM compound treatment, 10 mM compound stock was diluted to 50 µM with the cell culture media, and 25 µl of the diluted compound was added to the designated wells of the 96 well plates. For dose-response experiments, the amount of compounds for dilution was adjusted to fit the volume indicated above. After 48 hrs compound treatment, the cells were washed once with OptiMEM and live cell luciferase activity, fluorescent intensity and fluorescence area scan was measured.
1,728 compounds were treated at 10 µM to HEK293T-TK252-1E2 cells and incubated for 48 hrs. […] Single wash step with culture media without FBS was included before measurement to discard dead cells and to remove FBS that affects luciferase assay. […] Fluorescent intensity was taken for normalization, which is expected to be proportion to the cell number at the measuring point. L/F value which is luciferase activity normalized with fluorescent intensity (L/F = Luciferase activity/ Fluorescent intensity) was calculated for all measurements and compared to L/F value of DMSO controls to calculated the size of inhibitory effect. […] Fluorescence area scan (FA) performed right after luciferase activity and fluorescent intensity measurement, to validate total remaining fluorescent cells in a well as a proxy to the cellular toxicity. FA value was in proportion to WST assay results (data not shown), and average CV of triplicates of all measurements was 0.04.
61 compounds were further tested for dose-response profile, based on inhibitory effect that was measured by L/F value (<60%) and FA-based cell viability (>90%) at 10 µM compared to DMSO control. 10 compounds were considered as hit compounds through three times of reproduction.

T1 sequence (P10636 1-441 isoform P10636-8): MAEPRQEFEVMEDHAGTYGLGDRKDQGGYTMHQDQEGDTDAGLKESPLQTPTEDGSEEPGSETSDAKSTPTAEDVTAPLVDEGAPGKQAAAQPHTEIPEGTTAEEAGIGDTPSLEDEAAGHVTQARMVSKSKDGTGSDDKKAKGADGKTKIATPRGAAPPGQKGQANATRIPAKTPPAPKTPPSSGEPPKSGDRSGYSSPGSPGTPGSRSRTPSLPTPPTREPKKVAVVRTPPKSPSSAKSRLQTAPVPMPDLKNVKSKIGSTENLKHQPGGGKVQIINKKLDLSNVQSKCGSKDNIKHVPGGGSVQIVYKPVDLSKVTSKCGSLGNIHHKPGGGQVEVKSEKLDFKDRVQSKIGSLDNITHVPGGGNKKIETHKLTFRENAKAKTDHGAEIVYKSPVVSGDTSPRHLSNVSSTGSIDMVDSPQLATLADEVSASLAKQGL
T1 sequence (O43761 whole entry): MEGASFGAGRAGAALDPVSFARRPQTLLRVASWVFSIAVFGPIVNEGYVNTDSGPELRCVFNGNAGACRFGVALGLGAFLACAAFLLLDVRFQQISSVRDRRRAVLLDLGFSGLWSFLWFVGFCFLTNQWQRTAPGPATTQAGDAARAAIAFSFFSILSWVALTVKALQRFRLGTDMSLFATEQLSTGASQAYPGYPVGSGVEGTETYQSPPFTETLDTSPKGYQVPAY

| IC50 [µM] | SMILES |
| --- | --- |
| < 3 | O=C(c1ccccc1)N1CCc2[nH]c3ccc(-c4ccc([N+](=O)[O-])cc4)cc3c2C1 [Formula 71, (8-(4-nitrophenyl)-1,3,4,5-tetrahydro-2H-pyrido[4,3-b]indol-2-yl)(phenyl)methanone] |
| 12 to 25 | Cc1ccc(-c2ccc3[nH]c4c(c3c2)CN(C(=O)c2cccnc2)CC4)cn1 [Formula 48, (8-(6-methylpyridin-3-yl)-1,3,4,5-tetrahydro-2H-pyrido[4,3-b]indol-2-yl)(pyridin-3-yl)methanone] |
| 3 to 12 | Cc1ccc(-c2ccc3[nH]c4c(c3c2)CN(C(=O)c2ccnc(C)c2)CC4)cc1 [Formula 41, (2-methylpyridin-4-yl)(8-(p-tolyl)-1,3,4,5-tetrahydro-2H-pyrido[4,3-b]indol-2-yl)methanone] |
| 3 to 12 | COc1ccc(-c2ccc3[nH]c4c(c3c2)CN(C(=O)c2ccccc2)CC4)cc1 [Formula 62, (8-(4-Methoxyphenyl)-1,3,4,5-tetrahydro-2H-pyrido[4,3-b]indol-2-yl)(phenyl)methanone] |
| 3 to 12 | Cc1ccc(C(=O)N2CCc3[nH]c4ccc(-c5ccc(C6CCCCC6)cc5)cc4c3C2)cn1 [Formula 67, (8-(4-Cyclohexylphenyl)-1,3,4,5-tetrahydro-2H-pyrido[4,3-b]indol-2-yl)(6-methylpyridin-3-yl)methanone] |
| 3 to 12 | Cc1ccc(-c2ccc3[nH]c4c(c3c2)CN(C(=O)C2CCCCC2)CC4)cc1 [Formula 36, Cyclohexyl(8-(p-tolyl)-1,3,4,5-tetrahydro-2H-pyrido[4,3-b]indol-2-yl)methanone] |

Continued, compound first:

| SMILES | IC50 [µM] |
| --- | --- |
| Cc1cccc(C(=O)N2CCc3[nH]c4ccc(-c5ccccc5)cc4c3C2)c1 [Formula 15, (8-phenyl-1,3,4,5-tetrahydro-2H-pyrido[4,3-b]indol-2-yl)(m-tolyl)methanone] | 3 to 12 |
| O=C(c1ccccc1)N1CCc2[nH]c3ccc(-c4ccccc4)cc3c2C1 [Formula 9, Phenyl(8-phenyl-1,3,4,5-tetrahydro-2H-pyrido[4,3-b]indol-2-yl)methanone] | 3 to 12 |
| Cc1cccc(-c2ccc3[nH]c4c(c3c2)CN(C(=O)c2ccccc2)CC4)c1 [Formula 28, Phenyl(8-(m-tolyl)-1,3,4,5-tetrahydro-2H-pyrido[4,3-b]indol-2-yl)methanone] | < 3 |
| Cc1ccccc1-c1ccc2[nH]c3c(c2c1)CN(C(=O)c1ccccc1)CC3 [Formula 23, Phenyl(8-(o-tolyl)-1,3,4,5-tetrahydro-2H-pyrido[4,3-b]indol-2-yl)methanone] | 3 to 12 |
| O=C(N1CCOCC1)N1CCc2[nH]c3ccc(-c4ccccc4)cc3c2C1 [Formula 19, Morpholino(8-phenyl-1,3,4,5-tetrahydro-2H-pyrido[4,3-b]indol-2-yl)methanone] | 3 to 12 |
| O=C(c1ccncc1)N1CCc2[nH]c3ccc(-c4ccccc4)cc3c2C1 [Formula 3] | 3 to 12 |

Test system: TtgA / PTtgR phloretin-inducible gene expression system
Test: Phloretin-regulated EGFP expression (pTK269: PCAG-TtgA and pTK274: PTtgR-EGFP) in HEK293T
Assay type: cell-based, Human
Details: HEK293T co-transfected with pTK269 and pTK274, 0 - 50 µM phloretin, 48 hours
Experimental: • FIG. 1 is a fluorescence microscopy image of the HEK293T cell line transfected with EGFP-fused Tau (pTK231: P(CMV)-Tau-EGFP) and Synaptogyrin 3 (pTK233:P(CMV)-EGFP-Synaptogyrin 3), showing the expression of both proteins 48 hours after transfection. • FIG. 2a is a schematic of the Protein Complementary Assay (PCA) process using the split luciferase method. Split luciferase consists of two fragments of the luciferase enzyme: a small bit (sBit) and a large bit (Lbit). […] Therefore, by fusing each fragment of the split luciferase to Tau and Synaptogyrin3, luciferase activity may be induced as a result of the interaction between Tau and Synaptogyrin3. […] The system includes a synthetic transcriptional activator, TtgA, and a synthetic promoter, PTtgR, prepared based on the flavonoid-regulated TtgR operon of the Pseudomonas putida DOT-T1E strain. In the absence of phloretin, TtgA binds to PTtgR and activates transcription (without phloretin), while in the presence of phloretin, TtgA dissociates from DNA and transcription is not activated (with phloretin). […] In the stable cell line HEK293T-TK252 expressing Lbit-Tau and sBit-Synaptogyrin3, expression of Tau protein to which split luciferase is not fused, can lead to a decrease in luciferase signal. […]

| SMILES | EGFP signal, difference between 0 and 50 µM treatment [fold] |
| --- | --- |
| O=C(CCc1ccc(O)cc1)c1c(O)cc(O)cc1O [phloretin] | 4 |

Test system: Tau-Synaptogyrin3 interaction
Test: Tau competition assay with phloretin-inducible Tau expression in HEK293T-TK252 clones, luciferase activity
Assay type: cell-based, Human
Details: clone 1E2 co-transfected with pTK269 and pTK285, 0, 10 and 50 µM phloretin, 48 hours
Experimental: • FIG. 1 is a fluorescence microscopy image of the HEK293T cell line transfected with EGFP-fused Tau (pTK231: P(CMV)-Tau-EGFP) and Synaptogyrin 3 (pTK233:P(CMV)-EGFP-Synaptogyrin 3), showing the expression of both proteins 48 hours after transfection. • FIG. 2a is a schematic of the Protein Complementary Assay (PCA) process using the split luciferase method. Split luciferase consists of two fragments of the luciferase enzyme: a small bit (sBit) and a large bit (Lbit). […] Therefore, by fusing each fragment of the split luciferase to Tau and Synaptogyrin3, luciferase activity may be induced as a result of the interaction between Tau and Synaptogyrin3. […] The system includes a synthetic transcriptional activator, TtgA, and a synthetic promoter, PTtgR, prepared based on the flavonoid-regulated TtgR operon of the Pseudomonas putida DOT-T1E strain. In the absence of phloretin, TtgA binds to PTtgR and activates transcription (without phloretin), while in the presence of phloretin, TtgA dissociates from DNA and transcription is not activated (with phloretin). […]
Live cell luciferase assay: Live cell luciferase activity was measured using NanoGlo® Live Cell Assay System (Cat# N2012. Promega, WI, USA), according to manufacturer's instruction. […]

| SMILES | luciferase activity, difference between 0 and 50 µM treatment [fold] |
| --- | --- |
| O=C(CCc1ccc(O)cc1)c1c(O)cc(O)cc1O [phloretin] | 2 |
